Test results published in the supplement of paper PMC10307832.

Assays:
Assay in all cases: relative viability (nuclei count vs DMSO), 5 days (fraction); higher = more cells survive
LXF-289 = system: LXF-289
In short: (§1)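 Five library-drug doses in √10 steps were combined with a fixed anchor-drug dose, or a single drug was given alone, by pin tool to lung cancer cell lines in 1536-well plates the day after seeding. Nuclei were stained and counted after 5 days. Relative viability is the nuclei count in treated wells over that in vehicle wells, taken as the median of duplicate plates.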

NCI-H727 = system: NCI-H727
In short: as §1

NCI-H661 = system: NCI-H661
In short: as §1

NCI-H596 = system: NCI-H596
In short: as §1

SK-MES-1 = system: SK-MES-1
In short: as §1

NCI-H522 = system: NCI-H522
In short: as §1

NCI-H2347 = system: NCI-H2347
In short: as §1

NCI-H460 = system: NCI-H460
In short: as §1

PC-14 = system: PC-14
In short: as §1

NCI-H520 = system: NCI-H520
In short: as §1

NCI-H322M = system: NCI-H322M
In short: as §1

RERF-LC-KJ = system: RERF-LC-KJ
In short: as §1

NCI-H3122 = system: NCI-H3122
In short: as §1

NCI-H1915 = system: NCI-H1915
In short: as §1

NCI-H1563 = system: NCI-H1563
In short: as §1

NCI-H1792 = system: NCI-H1792
In short: as §1

SW 900 = system: SW 900
In short: as §1

NCI-H1651 = system: NCI-H1651
In short: as §1

NCI-H1355 = system: NCI-H1355
In short: as §1

NCI-H1755 = system: NCI-H1755
In short: as §1

NCI-H441 = system: NCI-H441
In short: as §1

LCLC-103H = system: LCLC-103H
In short: as §1

SMILES: O=c1cc(-c2cccc3c2Sc2ccccc2S3)oc(N2CCOCC2)c1 + COc1cccc2cc(-c3nc([C@H]4CC[C@H](C(=O)O)CC4)n4ncnc(N)c34)[nH]c12 [OSI-027] (partner 0.5 µM)
- relative viability (LXF-289; first compound 0.08 µM): 0.812
- relative viability (LXF-289; first compound 0.253 µM): 0.811
- relative viability (LXF-289; first compound 0.8 µM): 0.871
- relative viability (LXF-289; first compound 2.53 µM): 0.697
- relative viability (LXF-289; first compound 8 µM): 0.87
- relative viability (NCI-H727; first compound 0.08 µM): 0.631
- relative viability (NCI-H727; first compound 0.253 µM): 0.673
- relative viability (NCI-H727; first compound 0.8 µM): 0.586
- relative viability (NCI-H727; first compound 2.53 µM): 0.563
- relative viability (NCI-H727; first compound 8 µM): 0.64
- relative viability (NCI-H661; first compound 0.08 µM): 0.736
- relative viability (NCI-H661; first compound 0.253 µM): 0.739
- relative viability (NCI-H661; first compound 0.8 µM): 0.71
- relative viability (NCI-H661; first compound 2.53 µM): 0.642
- relative viability (NCI-H661; first compound 8 µM): 0.647
- relative viability (NCI-H596; first compound 0.08 µM): 0.69
- relative viability (NCI-H596; first compound 0.253 µM): 0.803
- relative viability (NCI-H596; first compound 0.8 µM): 0.695
- relative viability (NCI-H596; first compound 2.53 µM): 0.683
- relative viability (NCI-H596; first compound 8 µM): 0.662
- relative viability (SK-MES-1; first compound 0.08 µM): 0.534
- relative viability (SK-MES-1; first compound 0.253 µM): 0.633
- relative viability (SK-MES-1; first compound 0.8 µM): 0.601
- relative viability (SK-MES-1; first compound 2.53 µM): 0.521
- relative viability (SK-MES-1; first compound 8 µM): 0.547
- relative viability (NCI-H522; first compound 0.08 µM): 0.765
- relative viability (NCI-H522; first compound 0.253 µM): 0.685
- relative viability (NCI-H522; first compound 0.8 µM): 0.722
- relative viability (NCI-H522; first compound 2.53 µM): 0.723
- relative viability (NCI-H522; first compound 8 µM): 0.803
- relative viability (NCI-H2347; first compound 0.08 µM): 0.421
- relative viability (NCI-H2347; first compound 0.253 µM): 0.454
- relative viability (NCI-H2347; first compound 0.8 µM): 0.297
- relative viability (NCI-H2347; first compound 2.53 µM): 0.431
- relative viability (NCI-H2347; first compound 8 µM): 0.297
- relative viability (NCI-H460; first compound 0.08 µM): 0.605
- relative viability (NCI-H460; first compound 0.253 µM): 0.994
- relative viability (NCI-H460; first compound 0.8 µM): 0.643
- relative viability (NCI-H460; first compound 2.53 µM): 0.568
- relative viability (NCI-H460; first compound 8 µM): 0.527
- relative viability (PC-14; first compound 0.08 µM): 0.884
- relative viability (PC-14; first compound 0.253 µM): 1.07
- relative viability (PC-14; first compound 0.8 µM): 0.714
- relative viability (PC-14; first compound 2.53 µM): 0.772
- relative viability (PC-14; first compound 8 µM): 1.02
- relative viability (NCI-H520; first compound 0.08 µM): 0.297
- relative viability (NCI-H520; first compound 0.253 µM): 0.257
- relative viability (NCI-H520; first compound 0.8 µM): 0.297
- relative viability (NCI-H520; first compound 2.53 µM): 0.216
- relative viability (NCI-H520; first compound 8 µM): 0.296
- relative viability (NCI-H322M; first compound 0.08 µM): 0.524
- relative viability (NCI-H322M; first compound 0.253 µM): 0.588
- relative viability (NCI-H322M; first compound 0.8 µM): 0.618
- relative viability (NCI-H322M; first compound 2.53 µM): 0.44
- relative viability (NCI-H322M; first compound 8 µM): 0.543
- relative viability (RERF-LC-KJ; first compound 0.08 µM): 0.46
- relative viability (RERF-LC-KJ; first compound 0.253 µM): 0.54
- relative viability (RERF-LC-KJ; first compound 0.8 µM): 0.526
- relative viability (RERF-LC-KJ; first compound 2.53 µM): 0.499
- relative viability (RERF-LC-KJ; first compound 8 µM): 0.494
- relative viability (NCI-H3122; first compound 0.08 µM): 1.25
- relative viability (NCI-H3122; first compound 0.253 µM): 1.08
- relative viability (NCI-H3122; first compound 0.8 µM): 0.957
- relative viability (NCI-H3122; first compound 2.53 µM): 1.03
- relative viability (NCI-H3122; first compound 8 µM): 1.08
- relative viability (NCI-H1915; first compound 0.08 µM): 0.608
- relative viability (NCI-H1915; first compound 0.253 µM): 0.677
- relative viability (NCI-H1915; first compound 0.8 µM): 0.699
- relative viability (NCI-H1915; first compound 2.53 µM): 0.575
- relative viability (NCI-H1915; first compound 8 µM): 0.678
- relative viability (NCI-H1563; first compound 0.08 µM): 0.728
- relative viability (NCI-H1563; first compound 0.253 µM): 0.756
- relative viability (NCI-H1563; first compound 0.8 µM): 0.77
- relative viability (NCI-H1563; first compound 2.53 µM): 0.717
- relative viability (NCI-H1563; first compound 8 µM): 0.676
- relative viability (NCI-H1792; first compound 0.08 µM): 0.775
- relative viability (NCI-H1792; first compound 0.253 µM): 0.803
- relative viability (NCI-H1792; first compound 0.8 µM): 0.663
- relative viability (NCI-H1792; first compound 2.53 µM): 0.647
- relative viability (NCI-H1792; first compound 8 µM): 0.581
- relative viability (SW 900; first compound 0.08 µM): 0.573
- relative viability (SW 900; first compound 0.253 µM): 0.697
- relative viability (SW 900; first compound 0.8 µM): 0.459
- relative viability (SW 900; first compound 2.53 µM): 0.494
- relative viability (SW 900; first compound 8 µM): 0.596
- relative viability (NCI-H1651; first compound 0.08 µM): 0.625
- relative viability (NCI-H1651; first compound 0.253 µM): 0.767
- relative viability (NCI-H1651; first compound 0.8 µM): 0.711
- relative viability (NCI-H1651; first compound 2.53 µM): 0.6
- relative viability (NCI-H1651; first compound 8 µM): 0.702
- relative viability (NCI-H1355; first compound 0.08 µM): 0.402
- relative viability (NCI-H1355; first compound 0.253 µM): 0.376
- relative viability (NCI-H1355; first compound 0.8 µM): 0.335
- relative viability (NCI-H1355; first compound 2.53 µM): 0.338
- relative viability (NCI-H1355; first compound 8 µM): 0.33
- relative viability (NCI-H1755; first compound 0.08 µM): 0.71
- relative viability (NCI-H1755; first compound 0.253 µM): 0.794
- relative viability (NCI-H1755; first compound 0.8 µM): 0.682
- relative viability (NCI-H1755; first compound 2.53 µM): 0.553
- relative viability (NCI-H1755; first compound 8 µM): 0.772
- relative viability (NCI-H441; first compound 0.08 µM): 0.5
- relative viability (NCI-H441; first compound 0.253 µM): 0.813
- relative viability (NCI-H441; first compound 0.8 µM): 0.671
- relative viability (NCI-H441; first compound 2.53 µM): 0.645
- relative viability (NCI-H441; first compound 8 µM): 0.761
- relative viability (LCLC-103H; first compound 0.08 µM): 0.434
- relative viability (LCLC-103H; first compound 0.253 µM): 0.489
- relative viability (LCLC-103H; first compound 0.8 µM): 0.504
- relative viability (LCLC-103H; first compound 2.53 µM): 0.481
- relative viability (LCLC-103H; first compound 8 µM): 0.454
